# Assay results published in US9976142B2, “Targeting molecule and a use thereof” (Nitto Denko Corporation, priority 2014, dated 2018).
# Square brackets hold non-standard residues; d marks the D form. Ends that are not written are not given here.
# Tested on: rat hepatic stellate cells (HSCs)
# Test: siRNA introduction into rat hepatic stellate cells with targeting molecule/LipoTrust/siRNA lipoplex; HSP47 expression by quantitative PCR
# Type: cell-based
# Details: siRNA 11.5 μg/ml; for HSP47 expression rate (%): FIG. 2, HSP47 relative to GAPDH, untreated cell = 100; for extent of the suppression of the expression of HSP47 gene, compared with RBP Loop 1: FIG. 3; for extent of the suppression of the expression of HSP47 gene, compared with RBP Loop 1 / expression rate of HSP47 gene: peptide 7.7 μM; for expression rate of HSP47 gene: FIG. 5; for suppression of HSP47 expression: peptide stock solutions 1.1-10 mM
# Description: LipoTrust™ SR was dissolved in nuclease-free water (Ambion, Cat. No. AM9937) at a concentration of 1 mM of the cationic lipid. 10 μl of this liposome solution was placed in an Eppendorf tube, to which added 1 μl of the stock solution of each peptide above dissolved in DMSO at predetermined concentration (1.1 mM, 1.25 mM, 2.5 mM, 3.4 mM, 5 mM or 10 mM for experiments whose results are shown in FIG. 1; 90 mM for experiments whose results are shown in FIG. 2) or the stock solution of vitamin A above, and the mixture was vortexed for 15 seconds. To this mixture, 1.5 μl of the above siRNA stock solution was added and mixed, then 17.5 μl of 5% glucose aq. solution (OTSUKA GLUCOSE INJECTION 5%, Otsuka Pharmaceutical Co., Ltd.) was added and mixed. Thus obtained solution of liposome-peptide (or vitamin A)-siRNA complex (lipoplex) was left still under shade for 15 min at room temperature. Also, a mixture of the peptide and siRNA without LipoTrust™ SR was prepared as a control.
# Two days before the siRNA introduction, hepatic stellate cells (HSCs) prepared from a rat liver according to the method of Schaefer et al. (Schaefer et al., Hepatology. 1987 July-August; 7(4):680-7) were inoculated uniformly onto a 6-well plate at a density of 0.2×10^5/well and cultured in a Dulbecco's modified Eagle's medium (D-MEM, Sigma Aldrich, Cat. No. D6546, hereinbelow referred to as “culture medium”) containing 10% fetal bovine serum (Thermo HyClone, Cat. No. SH30070.03), 2% L-glutamine (Sigma Aldrich, Cat. No. G7513) and 1% penicillin-streptomycin (Sigma Aldrich, Cat. No. G1146).
# The culture medium was removed, 900 μl of fresh culture medium was added to each well, and then this was incubated for at least 30 minutes at 37° C. To 30 μl of each lipoplex solution obtained in Example 1, 100 μl of 5% glucose solution was added to make a mixed solution of 130 μl, and 100 μl of said mixture was added to corresponding well. The final concentration of the siRNA at this time was 11.5 μg/ml. After incubating at 37° C., in 5% CO2 for 30 minutes, the medium comprising the lipoplex solution was removed and substituted with the culture medium, and this was cultured under normal condition for 24-36 hours.
# Total RNA extraction of each sample was carried out using RNeasy Mini kit (Qiagen). Firstly, the culture medium was removed, and 350 μl/well each of RLT/2ME solution which was prepared in advance by mixing RLT solution attached to RNeasy Mini kit with 1% (v/v) 2-mercaptoethanol (2ME, Wako) was dispensed into each well. Total volume of the cell lysate was homogenized with QIAshredder (Qiagen), centrifuged at 4° C. and 12000 rpm for 2 min, and then total RNA was extracted according to the manufacturer's instruction. The obtained RNA was quantified using NanoDrop 2000 (Thermo Fisher Scientific), and cDNA was synthesized by RT-PCR. 20 μl total volume/tube of the reaction solution consisting of 4 μl of the reverse transcriptase mix (Super Script VILO Master Mix, Invitrogen, 11755-250) and 16 μl of total RNA of each sample (containing 100-500 ng or more RNA) was reacted at 25° C. for 5 min, at 42° C. for 60 min, then at 85° C. for 5 min, respectively, and subsequently stored at 4° C.
# The suppression of HSP47 expression was analyzed by quantitative PCR. As a standard template, the untreated cell sample was used in 10-fold dilution series (the stock solution, 10- and 100-fold dilutions). To each well of MicroAmp (Optical 96-well Reaction Plate, Applied Biosystems, Cat. No. 4306737) added a 48 μl premix consisting of 22 μl of sterile water, 25 μl of Power SYBR® Green (Applied Biosystems, Cat. No. 4367669) and 1 μl of primer mix. The primer mix comprises 50 μM each of the primer set against HSP47 or GAPDH, an internal standard gene, as shown below:
# To the corresponding well, 2 μl of the template cDNA obtained from each sample was added to make a total volume of 50 μl. […]
# [1] = each peptide at final concentration 69.2 μM, smaller value = greater suppression
compound,measurement,setting,value
"CC1=C(/C=C/C(C)=C/C=C/C(C)=C/CO)C(C)(C)CCC1 [VA, all-trans-retinol, reference compound]",HSP47 expression rate (%),VA at final concentration 7.7 μM,46.8%
AKDDPEGLFLQKNI (Variant peptide D3K12) [Mutant peptide 3],"extent of the suppression of the expression of HSP47 gene, compared with RBP Loop 1",,lower
AKDKPEGLFLQDNI (Variant peptide D3K4) [Mutant peptide 2],"extent of the suppression of the expression of HSP47 gene, compared with RBP Loop 1",,lower
AKEDPKGLFLQDNI (Variant peptide E3K6) [Mutant peptide 1],"extent of the suppression of the expression of HSP47 gene, compared with RBP Loop 1",,lower
"AKFQKLEPGDDLNI (Scramble peptide) [scrambled peptide, negative control, reference compound]",expression rate of HSP47 gene,,almost the same as the result in the group using no targeting molecule
AKGRVRLLNNWDVCA (Synthetic RBP loop 2),suppression of HSP47 expression,FIG. 1,concentration-dependent suppression of HSP47 expression
AKKDPEGLFLQD (Peptide No. 10-2),HSP47 expression rate (%),[1],48.5%
AKKDPEGLFLQDN (Peptide No. 10-1),HSP47 expression rate (%),[1],39.3%
AKKDPEGLFLQDNI (Synthetic RBP loop 1),suppression of HSP47 expression,FIG. 1,concentration-dependent suppression of HSP47 expression
same,"suppression rate by the complex, compared with vitamin A",FIG. 1,comparable to that by vitamin A
same,HSP47 expression rate (%),[1],49.0%
same,expression rate of HSP47 gene,,significantly decreased
KDPEGLFLQD (Peptide No. 10),HSP47 expression rate (%),[1],57.2%
KDPEGLFLQDN (Peptide No. 10-6),HSP47 expression rate (%),[1],44.3%
KDPEGLFLQDNI (Peptide No. 10-4),HSP47 expression rate (%),[1],42.9%
KKDPEGLFLQD (Peptide No. 10-5),HSP47 expression rate (%),[1],40.4%
KKDPEGLFLQDNI (Peptide No. 10-3),HSP47 expression rate (%),[1],31.2%
d-INDQLFLGEPDKKA-amide ([dI][dN][dD][dQ][dL][dF][dL]G[dE][dP][dD][dK][dK][dA]-NH2; N-terminus assumed; SMILES CC[C@@H](C)[C@@H](N)C(=O)N[C@H](CC(N)=O)C(=O)N[C@H](CC(=O)O)C(=O)N[C@H](CCC(N)=O)C(=O)N[C@H](CC(C)C)C(=O)N[C@H](Cc1ccccc1)C(=O)N[C@H](CC(C)C)C(=O)NCC(=O)N[C@H](CCC(=O)O)C(=O)N1CCC[C@@H]1C(=O)N[C@H](CC(=O)O)C(=O)N[C@H](CCCCN)C(=O)N[C@H](CCCCN)C(=O)N[C@H](C)C(N)=O) [retro-inverso peptide],targetability (suppression of HSP47),"FIG. 4, peptide 23.1 μM",almost the same targetability as that of RBP Loop 1
